Measurements from patent publication US20250353912A1, “COMPOSITIONS AND METHODS COMPRISING ANTIBODIES THAT BIND TO COVALENT PEPTIDE CONJUGATES” (New York University, priority 2022, published 2025).

Key:
H2122 cells = experiment: Cell viability following exposure to sotorasib for 72 hr; type: cell-based; settings: FIG. 43A
H358 cells = experiment: as above; type: cell-based; settings: 0.1 μM sotorasib, FIG. 43A
[1] = cited from earlier work
[2] = second line disease, versus docetaxel

C=CC(=O)N1CCN(c2nc(=O)n(-c3c(C)ccnc3C(C)C)c3nc(-c4c(O)cccc4F)c(F)cc23)[C@@H](C)C1 [sotorasib]
sotorasib concentration up to which H2122 is resistant (H2122 cells): ~10 µM
killing of H358 cells (H358 cells): nearly all of the H358 cells were killed
patients removed from the study because of liver toxicity ([1]; in vivo): six patients
patients with drug-induced liver injury ([1]; in vivo): two patients
patients with grade 3/4 liver toxicity ([1]; in vivo): 10%
overall survival [1, 2]: no impact
progression-free survival [1, 2]: improved by one month
